The record followed here is patent US8227506B2, “Benzamidine compound” (Ajinomoto., Inc., priority 2005, dated 2012).

Data set [1] in a line: Evaluation of stability in plasma. Format: in vitro ADME. As to conditions: disappearance half-life in human plasma, 37° C., final drug concentration 10 μM, HPLC. As to the method: Evaluation of Stability in Plasma
A […] solution (5 μl) of the test compound was added to human plasma (495 μl) (final drug concentration, 10 μM), and the mixture was incubated at 37° C. Samples (each 50 μl) were taken at 0 minutes, 3 minutes, 10 minutes, and 20 minutes after addition of the drug solution, diluted with distilled water (50 μl), and the reaction was quenched by adding 100% acetonitrile (300 μl) and blending them. After deproteinization by centrifugation at 15000 rpm for 5 minutes, the mixture was concentrated to dryness by a centrifugal evaporator. The sample was dissolved in 120 μl of 0.1% aqueous TFA, the peak area or height of the test compound was calculated by HPLC, and the disappearance half-life was determined.

Data set [2] concerns the target FXa (Homo sapiens, UniProt P00742). In words: Determination of activated factor X activity-inhibitory activity (chromogenic substrate S-2222). The settings on record: negative logarithm of the concentration suppressing 50% of the reaction rate of the control, 0.015 U/ml FXa. Format: biochemical. As to the method: Determination of Activated Factor X Activity-Inhibitory Activity
(§1) Using a 96 well plate (#3396, Costar), 0.015 U/ml FXa (10 μL) and a test compound (10 μL) were blended with 100 mM Tris-HCl buffer (130 μL) containing 0.02% Tween 20, 0.1% PEG6000 and 0.2 M NaCl for 10 minutes, and a substrate for color development (0.2 mM S-2222 50 μL) was added thereto. Using a Microplate reader Benchmark Plus (BIO-RAD), the reaction rate was measured from the time course changes at absorbance 405 nm. The reaction rate of the control was taken as 100% and the negative logarithm of the concentration capable of suppressing 50% of the reaction rate of the control was taken as the pIC50 value.

Data set [3] concerns the target activated factor IIa (thrombin) (Homo sapiens, UniProt P00734). In words: Determination of activated factor II (FIIa, thrombin)-inhibitory activity (chromogenic substrate S-2238). Format: biochemical. As to conditions: negative logarithm of the concentration suppressing 50% of the reaction rate of the control, 0.125 U/ml thrombin. As to the method: Determination of Activated Factor II (FIIa, Thrombin)-Inhibitory Activity
as §1, with “0.125” for “0.015”, “activated factor IIa (thrombin)” for “FXa”, “(0.1” for “(0.2”, “S-2238” for “S-2222”

The subject of data set [4] is human plasma. In words: Determination of anticoagulant activity (aPTT measurement method). As to conditions: negative logarithm of the concentration prolonging the aPTT of the control to two-fold. As to the method: Determination of Anticoagulant Activity
The aPTT measurement method using an automatic blood coagulation time measuring device, Sysmex CA-3000 (TOA Medical Electronics Co., Ltd.) was performed. A solution (5 μl) of the test compound was placed in a sample tube (SU-40, TOA Medical Electronics Co., Ltd.), human plasma (hemolyance coagulation control I, iatron Laboratory, 45 μl) was added and the mixture was incubated at 37° C. for 3 minutes. To the plasma solution were added dataphay•APTT (rabbit brain-derived cephalin, DADE Behring Co., Ltd., 50 μl) and 0.02 M calcium chloride (50 μl), and the time up to the coagulation of plasma was automatically measured. The anticoagulation activity is shown as the negative logarithm of the concentration prolonging the aPTT of the control to two-fold (paPTT2).

Data set [5] relates to dog dialysis model. In words: Evaluation of dog dialysis model. Format: in vivo, dog (Beagles). As to the method: Evaluation of Dog Dialysis Model
Beagles (♂, 11 kg-15 kg, Nosan Corp., Japan) were anesthetized with pentobarbital (30 mg/kg, Tokyo Chemical Industry Co., Ltd.) by intravenous administration from the cephalic vein of the forefoot. A tracheostomy tube was inserted and artificial breathing was started. Placing needles [14G (serflow placing needle, Termo Corp.), 16G (happycath, Medikit Co., Led), 18G (serflow placing needle, Termo Corp.)] were punctured into the left femoral vein, right femoral artery, and right cephalic vein of the forefoot, respectively, and an outer shunt (Senko Medical Instrument Mfg. CO., Ltd.) filled with saline was set to the femoral vein and artery. For hemodialysis, a hemodialysis device for one person (DBG-01, Nikkiso Co., Ltd.), a hollow fiber dialyzer (FB-50, triacetate (CTA) film, Nipro Corp.) and sodium bicarbonate dialysate (AK-sorita•DL, Shimizu Corp.) were used.
The experiment was performed under the conditions of blood flow 80 ml/minute, dialysate flow 300 ml/minute, water removal amount 0 ml/minute. During dialysis, pentobarbital (12 mg/kg/hour) was continuously administered from the cephalic vein of the forefoot to maintain anesthesia. The control and test compounds were continuously administered into the arterial blood circuit (B) at 5 ml/hour. […]

As usually defined, the half-life is the time needed for the level to fall by half in the phase considered. Read a high half-life as slow loss. One may read the IC50 as the concentration that inhibits the measured activity by half.

FXa, sequence (P00742 235-488 limits assumed): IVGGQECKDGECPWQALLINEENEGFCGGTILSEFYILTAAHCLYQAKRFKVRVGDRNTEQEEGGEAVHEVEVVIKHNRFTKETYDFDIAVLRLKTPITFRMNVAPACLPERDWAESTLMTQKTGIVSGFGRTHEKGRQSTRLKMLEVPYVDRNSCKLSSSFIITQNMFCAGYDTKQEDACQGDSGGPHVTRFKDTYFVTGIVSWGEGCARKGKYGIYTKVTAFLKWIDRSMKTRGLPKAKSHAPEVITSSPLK
FXa, sequence (P00742 41-179 partner limits assumed): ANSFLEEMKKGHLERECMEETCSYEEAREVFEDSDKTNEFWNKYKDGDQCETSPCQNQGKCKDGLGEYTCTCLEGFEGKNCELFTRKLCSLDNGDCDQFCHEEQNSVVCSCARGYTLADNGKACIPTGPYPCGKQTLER

`N=C(N)c1cccc(OCCOC(=O)c2ccc(OC3CCN(C(=N)N)CC3)cc2)c1` [Ex. 17, 2-{3-amidinophenoxy}ethyl 4-({1-amidinopiperidin-4-yl}oxy)benzoate ditrifluoroacetate] gave a half-life at 10 μM in data set [1] of 5.6 min. Besides, the IC50 in data set [2] was 63.1 nM; in data set [3] it was over 100000 nM.
`COc1ccc(C(=N)N)cc1OCCOC(=O)c1ccc(C(=N)N2CCCC2)cc1` [Ex. 18, 2-{5-amidino-2-methoxyphenoxy}ethyl 4-[imino(pyrrolidin-1-yl)methyl]benzoate ditrifluoroacetate] gave a half-life at 10 μM in data set [1] of 1.1 min. Further, the 50% inhibitory concentration (IC50) is 251 nM in data set [2] and over 100000 nM in data set [3]. Also, the paPTT2 in data set [4] came to 5.2.
For the compound `N#CCOc1ccc(C(=N)N)cc1OCCOC(=O)c1ccc(C(=N)N2CCCC2)cc1` [Ex. 20, 2-[5-amidino-2-(cyanomethoxy)phenoxy]ethyl 4-[imino(pyrrolidin-1-yl)methyl]benzoate ditrifluoroacetate], the half-life at 10 μM in data set [1] is 2.1 min. Further, the values for the IC50 in data set [2] and in data set [3] were 12.6 nM and 6310 nM, respectively. For the same compound, the bleeding time result in data set [5] (Template method, 2 hour after the start of the administration, versus control (FIG. 2)) is listed as “of the same level as the control”. This compound gave a dialysis time in data set [5] (up to arterial circuit pressure 300 mmHg or 4 hours after the start of the dialysis (FIG. 1)) of 4 h.
Turning to `CC(C)COc1ccc(C(=N)N)cc1OCCOC(=O)c1ccc(C(=N)N2CCCC2)cc1` [Ex. 24, 2-{5-amidino-2-isobutoxyphenoxy}ethyl 4-[imino(pyrrolidin-1-yl)methyl]benzoate ditrifluoroacetate], the half-life at 10 μM in data set [1] is 0.7 min. Moreover, the IC50 in data set [2] is 39.8 nM; in data set [3] it was 12600 nM.
Compound `CC(=O)Oc1ccc(C(=N)N)cc1OCCOC(=O)c1ccc(C(=N)N2CCCC2)cc1` [Ex. 28, 2-{2-(acetoxy)-5-amidinophenoxy}ethyl 4-[imino(pyrrolidin-1-yl)methyl]benzoate ditrifluoroacetate] showed a half-life at 10 μM in data set [1] of 3.5 min. Further, the results for the IC50 in data set [2] and in data set [3] were 3.98 nM and 1580 nM, respectively.
`CC(=N)N1CCC(Oc2ccc(C(=O)OCCOc3cccc(C(=N)N)c3)cc2)CC1` [Ex. 16, 2-{3-amidinophenoxy}ethyl 4-[(1-(1-iminoethyl)piperidin-4-yl)oxy]benzoate ditrifluoroacetate] displayed a half-life at 10 μM in data set [1] of 1.7 min. In addition, the IC50 is 63.1 nM in data set [2] and over 100000 nM in data set [3]. In data set [4], this compound displayed a paPTT2 of 5.4.
In data set [1], `N=C(N)c1ccc(O)c(OCCOC(=O)c2ccc(C(=N)N3CCCC3)cc2)c1` [Ex. 6, 2-{5-amidino-2-hydroxyphenoxy}ethyl 4-[imino(pyrrolidin-1-yl)methyl]benzoate ditrifluoroacetate] showed a half-life at 10 μM of 1.6 min. Besides, the IC50 in data set [2] was 3.16 nM; in data set [3] it was 79400 nM. In data set [4], this compound gave a paPTT2 of 6.
Regarding `N=C(N)c1ccc(OCCO)c(OCCOC(=O)c2ccc(C(=N)N3CCCC3)cc2)c1` [Ex. 13, 2-[5-amidino-2-(2-hydroxyethoxy)phenoxy]ethyl 4-[imino(pyrrolidin-1-yl)methyl]benzoate ditrifluoroacetate], the half-life at 10 μM in data set [1] stood at 2.7 min. The IC50 in data set [2] is 15.8 nM; in data set [3], 63100 nM. This compound had a paPTT2 in data set [4] of 6.4.
On to `N=C(N)c1cccc(OCCOC(=O)c2ccc(C(=N)N3CCCC3)nc2)c1` [Ex. 37, 2-(3-amidinophenoxy)ethyl 6-[imino(pyrrolidin-1-yl)methyl]nicotinate tritrifluoroacetate], for which the IC50 is 200 nM in data set [2] and over 100000 nM in data set [3]. In data set [4], this compound yielded a paPTT2 of 5.2.
